# Source: paper PMC8550792, “Evolution of kinase polypharmacology across HSP90 drug discovery” (Cell Chemical Biology, 2021)
# What was measured:
# Test in all cases: biochemical
# Type in all cases: biochemical
# 382 unique human kinases [1] = molecular target: T1, 382 unique human kinases (Homo sapiens, UniProt Q8TDX7); conditions: NEK7; read-out: Control Compound IC50*
# T1 construct: purchased Reaction Biology (HotSpot contract assay)
# 382 unique human kinases [2] = molecular target: T2, 382 unique human kinases (Homo sapiens, UniProt Q9HC98); conditions: NEK6; read-out: Control Compound IC50*
# T2 construct: purchased Reaction Biology (HotSpot contract assay)
# 382 unique human kinases [3] = molecular target: T3, 382 unique human kinases (Homo sapiens, UniProt Q6IQ55); conditions: TTBK2; read-out: Control Compound IC50*
# T3 construct: purchased Reaction Biology (HotSpot contract assay)
# 382 unique human kinases [4] = molecular target: T4, 382 unique human kinases (Homo sapiens, UniProt P27361); conditions: ERK1; read-out: Control Compound IC50*
# T4 construct: purchased Reaction Biology (HotSpot contract assay)
# 382 unique human kinases [5] = molecular target: T5, 382 unique human kinases (Homo sapiens, UniProt Q9BYP7); conditions: WNK3; read-out: Control Compound IC50*
# T5 construct: purchased Reaction Biology (HotSpot contract assay)
# 382 unique human kinases [6] = molecular target: T6, 382 unique human kinases (Homo sapiens, UniProt P41279); conditions: COT1/MAP3K8; read-out: Control Compound IC50*
# T6 construct: purchased Reaction Biology (HotSpot contract assay)
# 382 unique human kinases [7] = molecular target: T7, 382 unique human kinases (Homo sapiens, UniProt Q86Y07); conditions: kinase VRK2; read-out: Control Compound IC50*
# T7 construct: purchased Reaction Biology (HotSpot contract assay)
# 382 unique human kinases [8] = molecular target: T8, 382 unique human kinases (Homo sapiens, UniProt Q86Z02); conditions: HIPK1; read-out: Control Compound IC50*
# T8 construct: purchased Reaction Biology (HotSpot contract assay)
# 382 unique human kinases [9] = molecular target: T9, 382 unique human kinases (Homo sapiens, UniProt Q92918); conditions: kinase HPK1/MAP4K1; read-out: Control Compound IC50*
# T9 construct: purchased Reaction Biology (HotSpot contract assay)
# 382 unique human kinases [10] = molecular target: T10, 382 unique human kinases (Homo sapiens, UniProt Q99986); conditions: VRK1; read-out: Control Compound IC50*
# T10 construct: purchased Reaction Biology (HotSpot contract assay)
# T10 sequence (Q99986 1-396): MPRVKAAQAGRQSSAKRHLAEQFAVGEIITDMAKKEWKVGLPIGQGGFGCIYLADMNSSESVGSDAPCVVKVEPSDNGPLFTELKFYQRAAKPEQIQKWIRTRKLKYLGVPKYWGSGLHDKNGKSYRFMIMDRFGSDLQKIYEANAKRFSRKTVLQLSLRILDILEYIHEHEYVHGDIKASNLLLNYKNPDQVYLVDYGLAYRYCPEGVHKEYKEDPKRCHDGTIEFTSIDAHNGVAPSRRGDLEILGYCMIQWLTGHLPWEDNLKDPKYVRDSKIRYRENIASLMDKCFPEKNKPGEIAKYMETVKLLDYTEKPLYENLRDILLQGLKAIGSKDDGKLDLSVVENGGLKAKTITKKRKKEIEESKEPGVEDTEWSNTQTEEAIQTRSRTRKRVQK
# T2 sequence (Q9HC98 whole entry): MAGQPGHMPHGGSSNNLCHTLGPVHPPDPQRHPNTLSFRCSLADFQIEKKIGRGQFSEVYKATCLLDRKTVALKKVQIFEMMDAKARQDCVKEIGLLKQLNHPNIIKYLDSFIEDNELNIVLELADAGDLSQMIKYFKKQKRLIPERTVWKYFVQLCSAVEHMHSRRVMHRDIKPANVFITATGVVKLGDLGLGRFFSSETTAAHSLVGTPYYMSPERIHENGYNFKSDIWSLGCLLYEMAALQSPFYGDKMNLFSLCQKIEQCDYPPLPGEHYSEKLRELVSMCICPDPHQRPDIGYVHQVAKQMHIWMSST
# T4 sequence (P27361 whole entry): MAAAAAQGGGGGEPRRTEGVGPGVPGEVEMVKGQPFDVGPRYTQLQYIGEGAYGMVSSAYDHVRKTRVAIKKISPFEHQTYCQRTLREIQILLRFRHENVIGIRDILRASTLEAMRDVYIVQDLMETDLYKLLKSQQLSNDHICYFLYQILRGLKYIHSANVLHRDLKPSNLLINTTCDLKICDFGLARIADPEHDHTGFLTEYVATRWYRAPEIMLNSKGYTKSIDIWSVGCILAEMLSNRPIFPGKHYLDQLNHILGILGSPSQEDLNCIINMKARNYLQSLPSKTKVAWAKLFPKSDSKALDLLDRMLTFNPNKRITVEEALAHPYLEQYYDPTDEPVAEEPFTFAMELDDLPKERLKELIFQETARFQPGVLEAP
# T8 sequence (Q86Z02 whole entry): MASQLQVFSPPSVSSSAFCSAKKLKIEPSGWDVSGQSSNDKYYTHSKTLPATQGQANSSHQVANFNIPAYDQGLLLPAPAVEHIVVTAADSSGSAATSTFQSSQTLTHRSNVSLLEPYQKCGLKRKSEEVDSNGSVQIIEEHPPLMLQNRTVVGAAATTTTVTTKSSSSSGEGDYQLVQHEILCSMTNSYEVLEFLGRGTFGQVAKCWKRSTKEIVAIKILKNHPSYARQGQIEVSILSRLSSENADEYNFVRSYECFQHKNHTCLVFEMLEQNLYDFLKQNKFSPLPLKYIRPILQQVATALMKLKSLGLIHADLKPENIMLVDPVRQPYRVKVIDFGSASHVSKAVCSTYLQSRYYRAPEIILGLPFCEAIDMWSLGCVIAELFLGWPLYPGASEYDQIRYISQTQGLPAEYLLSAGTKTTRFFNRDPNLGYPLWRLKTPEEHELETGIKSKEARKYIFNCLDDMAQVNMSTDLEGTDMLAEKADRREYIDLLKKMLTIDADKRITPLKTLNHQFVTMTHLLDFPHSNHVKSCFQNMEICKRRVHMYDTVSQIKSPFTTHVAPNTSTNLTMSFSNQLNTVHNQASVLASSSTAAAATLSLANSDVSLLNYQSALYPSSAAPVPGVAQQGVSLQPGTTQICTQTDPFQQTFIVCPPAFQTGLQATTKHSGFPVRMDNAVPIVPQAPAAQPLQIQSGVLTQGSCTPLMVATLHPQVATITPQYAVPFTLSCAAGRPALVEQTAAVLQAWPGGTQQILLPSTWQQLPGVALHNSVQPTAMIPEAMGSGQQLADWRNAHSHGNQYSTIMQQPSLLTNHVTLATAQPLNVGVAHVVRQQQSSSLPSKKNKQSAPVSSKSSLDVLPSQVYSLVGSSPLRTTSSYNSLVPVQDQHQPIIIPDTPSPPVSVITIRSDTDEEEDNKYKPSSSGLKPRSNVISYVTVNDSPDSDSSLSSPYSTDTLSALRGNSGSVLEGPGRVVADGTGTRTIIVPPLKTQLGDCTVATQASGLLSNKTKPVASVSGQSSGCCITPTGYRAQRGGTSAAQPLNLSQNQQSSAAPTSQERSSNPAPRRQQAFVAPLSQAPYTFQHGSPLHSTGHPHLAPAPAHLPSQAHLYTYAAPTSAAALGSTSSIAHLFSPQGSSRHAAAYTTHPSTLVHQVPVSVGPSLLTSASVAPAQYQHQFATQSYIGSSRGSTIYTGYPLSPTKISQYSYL
# T3 sequence (Q6IQ55 whole entry): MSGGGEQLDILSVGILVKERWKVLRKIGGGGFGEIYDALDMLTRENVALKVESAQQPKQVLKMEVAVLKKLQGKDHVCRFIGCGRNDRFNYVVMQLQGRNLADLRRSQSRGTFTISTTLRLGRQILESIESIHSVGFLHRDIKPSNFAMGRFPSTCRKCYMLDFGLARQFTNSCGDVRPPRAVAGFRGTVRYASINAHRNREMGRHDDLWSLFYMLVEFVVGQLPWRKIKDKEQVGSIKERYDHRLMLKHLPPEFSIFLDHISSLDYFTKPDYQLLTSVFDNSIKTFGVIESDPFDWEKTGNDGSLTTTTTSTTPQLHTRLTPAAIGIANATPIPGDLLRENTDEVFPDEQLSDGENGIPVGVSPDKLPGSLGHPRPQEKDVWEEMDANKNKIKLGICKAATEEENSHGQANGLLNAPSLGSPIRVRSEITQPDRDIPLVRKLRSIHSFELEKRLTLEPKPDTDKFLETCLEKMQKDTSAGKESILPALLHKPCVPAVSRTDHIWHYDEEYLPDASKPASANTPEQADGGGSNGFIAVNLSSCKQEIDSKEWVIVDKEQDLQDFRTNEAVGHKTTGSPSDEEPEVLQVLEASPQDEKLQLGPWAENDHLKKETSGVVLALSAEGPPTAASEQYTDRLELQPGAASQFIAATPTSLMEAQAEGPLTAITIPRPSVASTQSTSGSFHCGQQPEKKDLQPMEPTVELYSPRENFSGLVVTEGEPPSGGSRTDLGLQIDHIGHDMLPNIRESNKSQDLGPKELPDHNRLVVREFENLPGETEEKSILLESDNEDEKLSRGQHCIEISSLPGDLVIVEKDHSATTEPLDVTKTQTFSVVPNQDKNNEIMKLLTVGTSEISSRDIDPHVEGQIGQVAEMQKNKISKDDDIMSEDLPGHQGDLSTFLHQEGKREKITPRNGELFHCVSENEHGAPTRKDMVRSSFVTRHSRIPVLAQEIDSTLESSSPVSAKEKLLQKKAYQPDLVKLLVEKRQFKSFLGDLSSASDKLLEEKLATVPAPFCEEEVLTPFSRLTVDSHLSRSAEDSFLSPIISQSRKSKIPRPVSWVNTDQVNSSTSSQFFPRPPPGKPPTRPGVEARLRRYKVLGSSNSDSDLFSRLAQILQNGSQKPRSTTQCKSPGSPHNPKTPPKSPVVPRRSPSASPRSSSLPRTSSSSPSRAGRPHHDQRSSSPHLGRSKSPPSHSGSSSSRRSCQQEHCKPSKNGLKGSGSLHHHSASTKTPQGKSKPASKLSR
# T9 sequence (Q92918 whole entry): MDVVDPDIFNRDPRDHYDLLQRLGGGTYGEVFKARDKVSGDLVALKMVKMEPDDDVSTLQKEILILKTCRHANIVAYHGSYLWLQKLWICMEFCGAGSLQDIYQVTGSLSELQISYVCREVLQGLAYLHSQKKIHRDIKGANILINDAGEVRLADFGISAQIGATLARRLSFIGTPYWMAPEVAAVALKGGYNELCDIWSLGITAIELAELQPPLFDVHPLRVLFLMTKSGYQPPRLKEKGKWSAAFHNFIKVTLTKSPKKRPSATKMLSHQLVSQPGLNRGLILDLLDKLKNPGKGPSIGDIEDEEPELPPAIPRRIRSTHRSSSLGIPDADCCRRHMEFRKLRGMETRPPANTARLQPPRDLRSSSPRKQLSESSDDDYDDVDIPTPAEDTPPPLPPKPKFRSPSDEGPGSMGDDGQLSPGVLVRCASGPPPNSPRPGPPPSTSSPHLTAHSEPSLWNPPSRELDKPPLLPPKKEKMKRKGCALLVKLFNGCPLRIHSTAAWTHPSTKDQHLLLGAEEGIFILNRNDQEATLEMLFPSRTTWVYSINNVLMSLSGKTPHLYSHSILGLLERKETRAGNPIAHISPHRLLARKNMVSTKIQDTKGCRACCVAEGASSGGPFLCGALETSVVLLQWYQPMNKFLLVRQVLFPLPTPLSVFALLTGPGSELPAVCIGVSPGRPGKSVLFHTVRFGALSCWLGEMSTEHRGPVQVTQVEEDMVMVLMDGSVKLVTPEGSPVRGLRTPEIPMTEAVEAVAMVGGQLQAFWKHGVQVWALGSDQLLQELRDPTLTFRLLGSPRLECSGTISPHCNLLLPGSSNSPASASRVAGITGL
# T1 sequence (Q8TDX7 whole entry): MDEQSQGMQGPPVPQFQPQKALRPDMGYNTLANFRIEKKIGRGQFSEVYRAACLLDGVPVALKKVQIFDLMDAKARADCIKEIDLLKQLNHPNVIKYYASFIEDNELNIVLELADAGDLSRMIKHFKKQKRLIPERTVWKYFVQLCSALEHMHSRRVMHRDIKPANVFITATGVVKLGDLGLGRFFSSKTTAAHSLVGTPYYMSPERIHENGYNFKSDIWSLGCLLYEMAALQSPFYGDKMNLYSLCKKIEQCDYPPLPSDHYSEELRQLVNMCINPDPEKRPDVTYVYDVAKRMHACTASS
# T6 sequence (P41279 whole entry): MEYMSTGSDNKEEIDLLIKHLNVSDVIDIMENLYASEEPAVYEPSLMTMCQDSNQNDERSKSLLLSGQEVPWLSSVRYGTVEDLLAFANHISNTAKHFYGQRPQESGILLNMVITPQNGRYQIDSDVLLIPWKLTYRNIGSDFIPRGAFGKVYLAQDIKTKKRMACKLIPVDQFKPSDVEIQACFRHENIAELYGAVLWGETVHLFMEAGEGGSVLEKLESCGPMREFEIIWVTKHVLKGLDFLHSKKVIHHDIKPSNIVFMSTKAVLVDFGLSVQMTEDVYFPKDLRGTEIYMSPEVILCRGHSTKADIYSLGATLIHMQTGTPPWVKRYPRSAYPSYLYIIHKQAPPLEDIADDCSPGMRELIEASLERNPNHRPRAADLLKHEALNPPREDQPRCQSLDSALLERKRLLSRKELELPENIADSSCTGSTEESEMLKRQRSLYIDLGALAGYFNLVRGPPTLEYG
compound,measurement,setting,value
O=C1Nc2ccc3ncsc3c2/C1=C/c1cnc[nH]1 [PKR Inhibitor],IC50,382 unique human kinases [1],12.4 µM
same,IC50,382 unique human kinases [2],35.5 µM
Oc1ccc(-c2nc(-c3ccncc3)c(-c3ccc(F)cc3)[nH]2)cc1 [SB202190],IC50,382 unique human kinases [3],9.41 µM
O=C(Nc1ccc2[nH]nc(-c3ccncc3)c2c1)[C@@H]1CCN(CC(=O)N2CCN(c3ccc(-c4ncccn4)cc3)CC2)C1 [SCH772984],IC50,382 unique human kinases [4],0.00981 µM
O=C1NC(=O)c2c1c(-c1ccccc1Cl)cc1[nH]c3ccc(O)cc3c21 [Wee-1 Inhibitor],IC50,382 unique human kinases [5],3.57 µM
Ro-31-8220,IC50,382 unique human kinases [6],7.83 µM
same,IC50,382 unique human kinases [7],9.05 µM
same,IC50,382 unique human kinases [8],0.8 µM
same,IC50,382 unique human kinases [9],0.0443 µM
same,IC50,382 unique human kinases [10],0.528 µM
